Results taken from paper PMC3354620 (Journal of the American Chemical Society, 2011).
“Also recorded” adds a separate entry of the source.

Experiments:
A/M2-V27A [1] = target: T1, A/M2-V27A (Influenza A virus, UniProt P0DOF5, V27A); conditions: cited from earlier work
A/M2-V27A [2] = target: T1, A/M2-V27A; type: cell-based, Influenza A virus (Udorn strain)
[3] = tested on: influenza A virus (A/Udorn/72) V27A mutant; type: cell-based

Structure (SMILES): CC(N)C12CC3CC(CC(C3)C1)C2 (stereo not shown) [rimantadine]
- effect of V27A mutation on channel sensitivity to drug (A/M2-V27A [1]): entirely resistant

Structure (SMILES): NC12CC3CC(CC(C3)C1)C2 [Amantadine]
- inhibition against V27A mutant (in words) (A/M2-V27A [2]): completely unable to inhibit
- effect of V27A mutation on channel sensitivity to drug (A/M2-V27A [1]): entirely resistant
- inhibition of A/M2-V27A virus replication [3]: no inhibition; also recorded: no effect
